# Earlier results as cited in US5668134A, “Method for preventing or reducing photosensitivity and/or phototoxicity reactions to medications” (priority 1994, dated 1997).
# Test system: skin
# Settings: Table 1; cited from earlier work
SMILES,Type of Photoreaction,Action Spectrum
C=C[C@H]1C[N@@]2CC[C@H]1C[C@H]2[C@H](O)c1ccnc2ccc(OC)cc12 [quinine],Photoallergic,–
CCCCNC(=O)NS(=O)(=O)c1ccc(C)cc1 [tolbutamide],–,290-360 nm
C=C[C@H]1C[N@@]2CC[C@H]1C[C@@H]2[C@@H](O)c1ccnc2ccc(OC)cc12 [Quinidine],Photoallergic,–
CNC1=Nc2ccc(Cl)cc2C(c2ccccc2)=[N+]([O-])C1 [Chlordiazepoxide],Photoallergic,290-360 nm
CCn1cc(C(=O)O)c(=O)c2ccc(C)nc21 [nalidixic acid],–,320-400 nm
CN(C)N=Nc1[nH]cnc1C(N)=O [DTIC],Phototoxic,–
CN(Cc1cnc2nc(N)nc(N)c2n1)c1ccc(C(=O)N[C@@H](CCC(=O)O)C(=O)O)cc1 [methotrexate],Phototoxic,–
"O=c1[nH]cc(F)c(=O)[nH]1 [fluorouracil, 5-fluoro-2,4 (1H,3H)-pyrimidinedione]",Phototoxic,–
CC[C@]1(O)C[C@@H]2CN(CCc3c([nH]c4ccccc34)[C@@](C(=O)OC)(c3cc4c(cc3OC)N(C)[C@H]3[C@@](O)(C(=O)OC)[C@H](OC(C)=O)[C@]5(CC)C=CCN6CC[C@]43[C@@H]65)C2)C1 [vinblastine],Phototoxic,–

# Same assay, conditions: cited from earlier work
row,SMILES,Action Spectrum
1,C=C[C@H]1C[N@@]2CC[C@H]1C[C@H]2[C@H](O)c1ccnc2ccc(OC)cc12 [quinine],320-400 nm
2,C=C[C@H]1C[N@@]2CC[C@H]1C[C@@H]2[C@@H](O)c1ccnc2ccc(OC)cc12 [Quinidine],320-400 nm
3,COC1=CC(=O)C[C@@H](C)[C@]12Oc1c(Cl)c(OC)cc(OC)c1C2=O [griseofulvin],320-400 nm
4,CCCNC(=O)NS(=O)(=O)c1ccc(Cl)cc1 [chlorpropamide],290-360 nm
